Test results reported in PMC4858680, “A platinum-based hybrid drug design approach to circumvent acquired resistance to molecular targeted tyrosine kinase inhibitors” (Scientific Reports, 2016).

Key:
Details in all cases: 10 μM
MST1R = target: T1, MST1R (Homo sapiens, UniProt Q04912); format: binding
T1 construct: purchased DiscoveRx KINOMEscan

EPHB6 = target: T2, EPHB6 (Homo sapiens, UniProt O15197)
T2 sequence (O15197 32-1021): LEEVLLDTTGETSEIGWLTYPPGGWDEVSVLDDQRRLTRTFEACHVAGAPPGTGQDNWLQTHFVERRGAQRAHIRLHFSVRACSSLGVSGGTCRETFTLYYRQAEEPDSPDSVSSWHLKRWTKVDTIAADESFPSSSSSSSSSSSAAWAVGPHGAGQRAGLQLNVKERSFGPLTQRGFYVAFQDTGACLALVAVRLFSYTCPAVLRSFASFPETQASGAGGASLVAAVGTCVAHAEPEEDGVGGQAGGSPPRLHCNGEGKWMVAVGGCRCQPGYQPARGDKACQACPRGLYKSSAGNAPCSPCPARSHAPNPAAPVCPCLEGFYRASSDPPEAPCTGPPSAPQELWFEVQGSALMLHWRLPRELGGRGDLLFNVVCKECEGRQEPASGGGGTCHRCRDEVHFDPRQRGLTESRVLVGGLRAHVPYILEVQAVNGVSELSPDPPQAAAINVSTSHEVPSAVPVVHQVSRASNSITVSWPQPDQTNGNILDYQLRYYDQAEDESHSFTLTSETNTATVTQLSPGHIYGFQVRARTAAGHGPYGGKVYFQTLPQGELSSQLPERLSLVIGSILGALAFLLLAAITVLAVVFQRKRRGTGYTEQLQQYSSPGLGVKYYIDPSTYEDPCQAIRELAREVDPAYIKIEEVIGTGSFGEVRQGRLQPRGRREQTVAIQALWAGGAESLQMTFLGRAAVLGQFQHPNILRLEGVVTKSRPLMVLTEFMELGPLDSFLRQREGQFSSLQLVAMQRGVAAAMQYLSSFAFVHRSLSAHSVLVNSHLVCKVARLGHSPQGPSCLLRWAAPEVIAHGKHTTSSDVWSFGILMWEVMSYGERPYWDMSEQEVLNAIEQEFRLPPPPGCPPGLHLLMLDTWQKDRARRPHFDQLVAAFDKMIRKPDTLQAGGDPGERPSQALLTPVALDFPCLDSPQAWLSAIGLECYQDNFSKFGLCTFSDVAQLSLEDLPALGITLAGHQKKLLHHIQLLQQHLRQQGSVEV

FLT3(ITD) = test system: FLT3(ITD)
EPHB2 = target: T3, EPHB2 (Homo sapiens, UniProt P29323)
T3 sequence (P29323 19-1055): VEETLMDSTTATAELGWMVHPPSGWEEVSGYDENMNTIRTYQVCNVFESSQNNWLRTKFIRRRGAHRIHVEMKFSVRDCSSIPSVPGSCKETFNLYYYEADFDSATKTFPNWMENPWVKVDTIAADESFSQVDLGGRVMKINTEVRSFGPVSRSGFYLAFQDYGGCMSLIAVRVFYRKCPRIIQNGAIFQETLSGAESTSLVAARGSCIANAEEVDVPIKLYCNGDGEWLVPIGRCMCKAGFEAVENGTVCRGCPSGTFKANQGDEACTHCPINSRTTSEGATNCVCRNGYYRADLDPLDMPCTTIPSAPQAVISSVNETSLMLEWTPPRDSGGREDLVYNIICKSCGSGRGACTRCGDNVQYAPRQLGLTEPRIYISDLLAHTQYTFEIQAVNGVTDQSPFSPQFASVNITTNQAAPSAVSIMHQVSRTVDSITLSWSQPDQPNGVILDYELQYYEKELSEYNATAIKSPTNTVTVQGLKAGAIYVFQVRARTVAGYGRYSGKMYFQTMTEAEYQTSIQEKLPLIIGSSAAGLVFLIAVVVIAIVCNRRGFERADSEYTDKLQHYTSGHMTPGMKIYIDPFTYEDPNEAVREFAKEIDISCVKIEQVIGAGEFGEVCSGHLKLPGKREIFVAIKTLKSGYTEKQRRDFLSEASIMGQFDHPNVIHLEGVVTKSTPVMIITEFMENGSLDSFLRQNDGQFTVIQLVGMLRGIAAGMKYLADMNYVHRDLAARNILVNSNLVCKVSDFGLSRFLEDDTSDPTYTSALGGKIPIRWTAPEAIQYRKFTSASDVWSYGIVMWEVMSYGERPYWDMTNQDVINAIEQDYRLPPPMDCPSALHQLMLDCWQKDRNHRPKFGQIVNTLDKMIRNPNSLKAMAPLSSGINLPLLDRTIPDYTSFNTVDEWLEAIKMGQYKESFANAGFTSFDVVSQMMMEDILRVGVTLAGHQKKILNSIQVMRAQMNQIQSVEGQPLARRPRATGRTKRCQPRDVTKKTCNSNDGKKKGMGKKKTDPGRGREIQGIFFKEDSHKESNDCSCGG

ZAP70 = target: T4, ZAP70 (Homo sapiens, UniProt P43403)
T4 sequence (P43403 1-619): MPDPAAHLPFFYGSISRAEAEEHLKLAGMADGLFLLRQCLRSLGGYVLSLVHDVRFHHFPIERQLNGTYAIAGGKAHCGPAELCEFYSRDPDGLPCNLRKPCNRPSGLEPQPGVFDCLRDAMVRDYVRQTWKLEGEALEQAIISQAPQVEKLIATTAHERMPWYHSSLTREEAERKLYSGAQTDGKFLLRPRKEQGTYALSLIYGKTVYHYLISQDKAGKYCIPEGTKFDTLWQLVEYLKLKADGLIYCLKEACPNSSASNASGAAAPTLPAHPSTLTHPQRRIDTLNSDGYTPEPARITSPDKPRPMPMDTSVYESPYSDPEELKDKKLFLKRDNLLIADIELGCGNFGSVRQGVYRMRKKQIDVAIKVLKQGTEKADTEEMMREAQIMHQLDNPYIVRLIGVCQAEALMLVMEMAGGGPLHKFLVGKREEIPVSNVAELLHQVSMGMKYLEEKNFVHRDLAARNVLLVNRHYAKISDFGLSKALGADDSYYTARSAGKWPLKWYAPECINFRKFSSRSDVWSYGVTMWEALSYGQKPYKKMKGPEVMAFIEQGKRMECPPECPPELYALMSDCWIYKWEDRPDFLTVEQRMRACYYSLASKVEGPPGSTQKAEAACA

T1 sequence (Q04912 25-1400): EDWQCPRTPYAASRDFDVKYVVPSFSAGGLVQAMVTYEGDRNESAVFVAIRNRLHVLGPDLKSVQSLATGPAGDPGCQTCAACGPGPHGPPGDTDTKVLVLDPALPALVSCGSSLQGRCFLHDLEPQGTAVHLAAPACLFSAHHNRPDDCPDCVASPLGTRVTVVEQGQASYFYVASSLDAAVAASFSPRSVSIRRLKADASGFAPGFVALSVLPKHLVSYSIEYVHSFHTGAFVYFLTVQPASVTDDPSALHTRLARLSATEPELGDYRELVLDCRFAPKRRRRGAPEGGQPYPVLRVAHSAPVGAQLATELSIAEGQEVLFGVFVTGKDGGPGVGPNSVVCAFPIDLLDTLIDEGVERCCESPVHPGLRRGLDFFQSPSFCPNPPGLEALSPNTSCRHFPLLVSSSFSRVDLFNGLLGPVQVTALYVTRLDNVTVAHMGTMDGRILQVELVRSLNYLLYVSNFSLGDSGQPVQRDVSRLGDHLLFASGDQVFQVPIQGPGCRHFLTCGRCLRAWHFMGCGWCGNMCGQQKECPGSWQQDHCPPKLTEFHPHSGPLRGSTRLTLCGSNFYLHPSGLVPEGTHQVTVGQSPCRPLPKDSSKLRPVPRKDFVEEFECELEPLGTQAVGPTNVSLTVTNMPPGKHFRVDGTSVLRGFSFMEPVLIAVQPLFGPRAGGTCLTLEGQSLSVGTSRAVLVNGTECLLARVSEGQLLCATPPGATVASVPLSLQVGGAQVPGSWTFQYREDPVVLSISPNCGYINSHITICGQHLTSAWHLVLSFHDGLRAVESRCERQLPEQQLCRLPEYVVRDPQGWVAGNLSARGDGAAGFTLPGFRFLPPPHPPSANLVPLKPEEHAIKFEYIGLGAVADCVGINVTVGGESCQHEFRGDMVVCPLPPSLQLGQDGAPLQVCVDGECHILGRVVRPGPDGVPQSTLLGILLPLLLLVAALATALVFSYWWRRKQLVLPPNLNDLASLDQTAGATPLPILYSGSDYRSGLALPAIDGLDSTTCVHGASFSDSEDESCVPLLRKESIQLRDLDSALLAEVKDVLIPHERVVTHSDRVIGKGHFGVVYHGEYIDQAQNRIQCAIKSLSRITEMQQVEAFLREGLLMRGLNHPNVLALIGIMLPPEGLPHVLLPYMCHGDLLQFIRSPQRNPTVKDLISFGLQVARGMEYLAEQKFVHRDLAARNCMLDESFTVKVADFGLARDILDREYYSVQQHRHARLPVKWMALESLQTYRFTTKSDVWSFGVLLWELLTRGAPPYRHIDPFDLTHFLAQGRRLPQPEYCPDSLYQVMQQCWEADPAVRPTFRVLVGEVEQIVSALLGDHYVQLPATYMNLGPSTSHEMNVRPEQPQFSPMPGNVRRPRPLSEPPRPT

Compound `C#Cc1cccc(Nc2c3cc(OCCOC)c(OCCOC)cc3nc[n+]2[Pt@SP2-2]([NH3+])([NH3+])[Cl])c1` [2a, cisplatin-erlotinib] has a Percent control (MST1R) of 100%, a Percent control (EPHB6) of 76% and a Percent control (FLT3(ITD)) of 79%. For the same compound, the Percent control (EPHB2) was 94% and the Percent control (ZAP70) was 89%.
For `COc1cc2c(Nc3ccc(Br)cc3F)[n+]([Pt-2]3([Cl])[NH2+]C4CCCCC4[NH2+]3)cnc2cc1OCC1CCN(C)CC1` (centres unmarked) [3b, oxaliplatin-vandetanib], the Percent control (MST1R) was 100%, the Percent control (EPHB6) was 2.5% and the Percent control (EPHB2) was 69%. For the same compound, the Percent control (ZAP70) was 99%.
In the case of `Cc1ccc(NC(=O)c2ccc(CN3CCN(C)CC3)cc2)cc1Nc1nccc(-c2cccnc2)[n+]1[Pt-2]1([Cl])[NH2+]C2CCCCC2[NH2+]1` (centres unmarked) [1b, oxaliplatin-imatinib], the Percent control (MST1R) is reported as 100%, the Percent control (EPHB6) is reported as 92% and the Percent control (FLT3(ITD)) is reported as 74%. It also gave a Percent control (EPHB2) of 95% and a Percent control (ZAP70) of 100%.
With `COc1cc2c(Nc3ccc(Br)cc3F)ncnc2cc1OCC1CCN(C)CC1` [Vandetanib, reference compound] the Percent control (FLT3(ITD)) was 15.3%.
Compound `Cc1ccc(NC(=O)c2ccc(CN3CCN(C)CC3)cc2)cc1Nc1nccc(-c2cccnc2)n1` [Imatinib, reference compound] has a Percent control (MST1R) of 100%, a Percent control (EPHB6) of 100% and a Percent control (FLT3(ITD)) of 38.7%. For the same compound, the Percent control (ZAP70) was 100%.
Work on `C#Cc1cccc(Nc2ncnc3cc(OCCOC)c(OCCOC)cc23)c1` [Erlotinib] yielded a Percent control (FLT3(ITD)) of 7.6%.
